In US8895471B2, “Chiral3-(benzylsulfinyl)-5,5-dimethyl-4,5-dihydroisoxazole derivatives and 5,5-dimethyl-3-[(1h-pyrazol-4-ylmethyl)sulfinyl]-4,5-dihyddroisoxazole derivatives, method for the production thereof, and use of same as herbicides and plant growth regulators” (Bayer Cropscience AG, priority 2007, dated 2014):

What was measured:
[1] = tested on: Brassica napus (winter rape); assay: Pre-emergence herbicidal effect and crop plant compatibility, BRSNW; assay type: in vivo; conditions: scored after about 3 weeks
Excerpt: (§1) 1. Pre-emergence herbicidal effect and crop plant compatibility
(§2) • Seeds of monocotyledonous or dicotyledonous weed plants or crop plants are planted in wood-fiber pots in sandy loam and covered with soil. The compounds according to the invention, formulated in the form of wettable powders (WP), are then applied as aqueous suspension at a water application rate of 600 l/ha (converted) with the addition of 0.2% of wetting agent to the surface of the covering soil. • After the treatment, the pots are placed in a greenhouse and kept under good growth conditions for the test plants. After about 3 weeks, the effect of the preparations is scored visually in comparison with untreated controls (herbicidal effect in percent (%): 100% activity=the plants have died, 0% activity=like control plants). • As shown by the results, the compounds according to the invention have good herbicidal pre-emergence activity against a broad spectrum of weed grasses and broad-leaved weeds. […] Some of the compounds according to the invention have high selectivity and are therefore suitable for controlling unwanted vegetation in agricultural crops by the pre-emergence method.
(§3) • ALOMY Alopecurus myosuroides (black-grass) • LOLMU: Lolium multiflorum (Italian ryegrass) • SETVI: Setaria viridis (green foxtail) • BRSNW: Brassica napus (winter rape) • ZEAMX: Zea mays (corn) 2. Post-Emergence Herbicidal Effect and Crop Plant Compatibility • Seeds of monocotyledonous and dicotyledonous weed and crop plants are placed in sandy loam in wood fibre pots, covered with soil and cultivated in a greenhouse under good growth conditions. 2 to 3 weeks after sowing, the test plants are treated at the one-leaf stage. The compounds according to the invention, formulated in the form of wettable powders (WP), are then applied by spraying as aqueous suspension at a water application rate of 600 l/ha (converted) with the addition of 0.2% of wetting agent to the green parts of the plants. After the test plants have been kept in the greenhouse under optimum growth conditions for about 3 weeks, the activity of the preparations is rated visually in comparison to untreated controls (herbicidal activity in percent (%): 100% activity=the plants have died, 0% activity=like control plants). • As shown by the results, the compounds according to the invention have good herbicidal post-emergence activity against a plurality of weed grasses and broad-leaved weeds. […] Some of the compounds according to the invention have high selectivity and are therefore suitable for controlling unwanted vegetation in agricultural crops by the post-emergence method.

[2] = tested on: Alopecurus myosuroides (black-grass); assay: Pre-emergence herbicidal effect, ALOMY; assay type: in vivo; conditions: scored after about 3 weeks
Excerpt: as §1, §2, §3

[3] = tested on: Lolium multiflorum (Italian ryegrass); assay: Pre-emergence herbicidal effect, LOLMU; assay type: in vivo; conditions: scored after about 3 weeks
Excerpt: as §1, §2, §3

[4] = tested on: Setaria viridis (green foxtail); assay: Pre-emergence herbicidal effect, SETVI; assay type: in vivo; conditions: scored after about 3 weeks
Excerpt: as §1, §2, §3

[5] = tested on: Avena fatua, Stellaria media, Echinochloa crus-galli, Lolium multiflorum, Setaria viridis, Amaranthus retroflexus, Viola tricolor, Veronica persica and …; assay: Pre-emergence herbicidal activity against harmful plants; assay type: in vivo; conditions: application rate of 0.32 kg and less of active substance per hectare
Excerpt: as §1, §2

[6] = tested on: Avena fatua, Echinochloa crus-galli, Lolium multiflorum, Setaria viridis and Alopecurus myosuroides; assay: Post-emergence herbicidal effect and crop plant compatibility; assay type: in vivo; conditions: application rate of 0.32 kg and less of active substance per hectare
Excerpt: as §3

Zea mays (corn) = assay: Pre-emergence herbicidal effect and crop plant compatibility, ZEAMX; assay type: in vivo; conditions: scored after about 3 weeks
Excerpt: as §1, §2, §3

POLCO = assay: Pre-emergence herbicidal effect, POLCO; assay type: in vivo; conditions: scored after about 3 weeks
Excerpt: as §1, §2

VERPE = assay: Pre-emergence herbicidal effect, VERPE; assay type: in vivo, Veronica persica; conditions: scored after about 3 weeks
Excerpt: as §1, §2

| SMILES | herbicidal effect in percent, BRSNW (crop plant) ([1]; 80 g of active compound/ha) [%] | herbicidal effect in percent, BRSNW (crop plant) ([1]; 320 g of active compound/ha) [%] | herbicidal effect in percent, ALOMY ([2]; 80 g of active compound/ha) [%] | herbicidal effect in percent, ALOMY ([2]; 320 g of active compound/ha) [%] | herbicidal effect in percent, LOLMU ([3]; 80 g of active compound/ha) [%] | herbicidal effect in percent, LOLMU ([3]; 320 g of active compound/ha) [%] | herbicidal effect in percent, SETVI ([4]; 80 g of active compound/ha) [%] | herbicidal effect in percent, SETVI ([4]; 320 g of active compound/ha) [%] | herbicidal activity against harmful plants, pre-emergence method [5] | herbicidal activity against harmful plants, post-emergence method [6] | herbicidal effect in percent, BRSNW (crop plant) ([1]; 20 g of active compound/ha) [%] | herbicidal effect in percent, ALOMY ([2]; 20 g of active compound/ha) [%] | herbicidal effect in percent, LOLMU ([3]; 20 g of active compound/ha) [%] | herbicidal effect in percent, SETVI ([4]; 20 g of active compound/ha) [%] | herbicidal effect in percent, ZEAMX (crop plant) (Zea mays (corn); 20 g of active compound/ha) [%] | herbicidal effect in percent, ZEAMX (crop plant) (Zea mays (corn); 80 g of active compound/ha) [%] | herbicidal effect in percent, POLCO (POLCO; 20 g of active compound/ha) [%] | herbicidal effect in percent, POLCO (POLCO; 80 g of active compound/ha) [%] | herbicidal effect in percent, VERPE (VERPE; 20 g of active compound/ha) [%] | herbicidal effect in percent, VERPE (VERPE; 80 g of active compound/ha) [%] |
| --- | --- | --- | --- | --- | --- | --- | --- | --- | --- | --- | --- | --- | --- | --- | --- | --- | --- | --- | --- | --- |
| CC1(C)CC([S@@+]([O-])Cc2c(F)cccc2F)=NO1 [Compound 6, 3-[(S)-(2,6-Difluorobenzyl)sulfinyl]-5,5-dimethyl-4,5-dihydroisoxazole] | 0 | 0 | 90 | 100 | 80 | 100 | 60 | 100 | very good herbicidal activity | very good herbicidal activity | – | – | – | – | – | – | – | – | – | – |
| Cn1nc(C(F)(F)F)c(C[S@+]([O-])C2=NOC(C)(C)C2)c1OC(F)F [Compound 483, 3-[(S)-{[5-(Difluoromethoxy)-1-methyl-3-(trifluoromethyl)-1H-pyrazol-4-yl]methyl}sulfinyl]-5,5-dimethyl-4,5-dihydroisoxazole] | 0 | – | 100 | – | 100 | – | 90 | – | very good herbicidal activity | very good herbicidal activity | 0 | 80 | 60 | 80 | – | – | – | – | – | – |
| Cn1nc(C(F)(F)F)c(C[S+]([O-])C2=NOC(C)(C)C2)c1OC(F)F (racemic) [Racemate of 483 (S config.) and 664 (R config.), 3-({[5-(difluoromethoxy)-1-methyl-3-(trifluoromethyl)-1H-pyrazol-4-yl]methyl}sulfinyl)-5,5-dimethyl-4,5-dihydroisoxazole, reference compound] | 0 | – | 90 | – | 90 | – | 80 | – | – | – | 0 | 0 | 0 | 40 | – | – | – | – | – | – |
| CC1(C)CC([S@+]([O-])Cc2c(F)cccc2F)=NO1 [Compound 228, 3-[(R)-(2,6-difluorobenzyl)sulfinyl]-5,5-dimethyl-4,5-dihydroisoxazole] | 0 | 0 | 60 | 80 | 0 | 0 | 0 | 50 | very good herbicidal activity | very good herbicidal activity | – | – | – | – | – | – | – | – | – | – |
| CC1(C)CC([S@@+]([O-])Cc2c(Cl)cccc2Cl)=NO1 [Compound 32, 3-[(S)-(2,6-Dichlorobenzyl)sulfinyl]-5,5-dimethyl-4,5-dihydroisoxazole] | – | – | 100 | – | – | – | – | – | very good herbicidal activity | very good herbicidal activity | – | 80 | – | – | 0 | 0 | 40 | 80 | 40 | 100 |
| CC1(C)CC([S+]([O-])Cc2c(F)cccc2F)=NO1 (racemic) [Racemate of 6 (S config.) and 228 (R config.), 3-[(2,6-difluorobenzyl)sulfinyl]-5,5-dimethyl-4,5-dihydroisoxazole, reference compound] | 20 | 30 | 70 | 100 | 80 | 80 | 40 | 40 | – | – | – | – | – | – | – | – | – | – | – | – |
| Cn1nc(C(F)(F)F)c(C[S@@+]([O-])C2=NOC(C)(C)C2)c1OC(F)F [Compound 664, 3-[(R)-{[5-(difluoromethoxy)-1-methyl-3-(trifluoromethyl)-1H-pyrazol-4-yl]methyl}sulfinyl]-5,5-dimethyl-4,5-dihydroisoxazole] | – | – | – | – | – | – | – | – | very good herbicidal activity | very good herbicidal activity | – | – | – | – | – | – | – | – | – | – |
| CC1(C)CC([S+]([O-])Cc2c(Cl)cccc2Cl)=NO1 (racemic) [Racemate of 32 (S config.) and 254 (R config.), 3-[(2,6-dichlorobenzyl)sulfinyl]-5,5-dimethyl-4,5-dihydroisoxazole, reference compound] | – | – | 90 | – | – | – | – | – | – | – | – | 80 | – | – | 0 | 10 | – | 20 | 0 | – |
| CC1(C)CC([S@+]([O-])Cc2c(Cl)cccc2Cl)=NO1 [Compound 254, 3-[(R)-(2,6-dichlorobenzyl)sulfinyl]-5,5-dimethyl-4,5-dihydroisoxazole] | – | – | 60 | – | – | – | – | – | very good herbicidal activity | very good herbicidal activity | – | 0 | – | – | 0 | 0 | 10 | 20 | 0 | 20 |
